Reference: ChEMBL document CHEMBL4507327 (2021)

How the values were obtained:
[1] = biological target: Serine/threonine-protein kinase ULK1 (Homo sapiens, UniProt O75385); assay: ULK1(ULK1LGF1) Takeda global kinase panel
[2] = biological target: D(2) dopamine receptor (Homo sapiens) (UniProt P14416); conditions: Compound concentration 10.0 uM
[3] = biological target: Mitogen-activated protein kinase 10 (Homo sapiens, UniProt P53779); assay: JNK3(MP10LGF2) Takeda global kinase panel
[4] = biological target: Non-receptor tyrosine-protein kinase TYK2 (Homo sapiens, UniProt P29597); assay: Tyk2(TYK2LGF1) Takeda global kinase panel
[5] = biological target: Receptor-interacting serine/threonine-protein kinase 2 (Homo sapiens, UniProt O43353); assay: RIPK2(RIP2LGI1) Takeda global kinase panel
[6] = biological target: Mitogen-activated protein kinase 11 (Homo sapiens, UniProt Q15759); assay: p38beta(MP11LGI1) Takeda global kinase panel
[7] = biological target: Tyrosine-protein kinase ABL1 (Homo sapiens, UniProt P00519); assay: Abl(ABL1IHY1) Takeda global kinase panel
[8] = biological target: Cyclin-dependent kinase 11A (Homo sapiens, UniProt Q9UQ88); assay: CDK11A(C11ALGS1) Takeda global kinase panel
[9] = biological target: 3-phosphoinositide-dependent protein kinase 1 (Homo sapiens, UniProt O15530); assay: PDK1(PDP1LGA1) Takeda global kinase panel
[10] = biological target: B1 bradykinin receptor (Homo sapiens) (UniProt P46663); conditions: Compound concentration 10.0 uM
B1 bradykinin receptor (Homo sapiens), sequence (P46663 whole entry): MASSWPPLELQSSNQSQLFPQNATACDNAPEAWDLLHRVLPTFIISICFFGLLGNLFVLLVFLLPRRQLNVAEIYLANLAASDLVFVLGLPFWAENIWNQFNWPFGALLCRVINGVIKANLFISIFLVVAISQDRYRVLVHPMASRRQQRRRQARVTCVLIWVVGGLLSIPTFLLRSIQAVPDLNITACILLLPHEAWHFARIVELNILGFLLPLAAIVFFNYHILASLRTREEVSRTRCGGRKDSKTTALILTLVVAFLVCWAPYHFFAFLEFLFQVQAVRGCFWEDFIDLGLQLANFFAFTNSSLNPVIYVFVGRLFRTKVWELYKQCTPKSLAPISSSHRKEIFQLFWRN

[11] = biological target: Serine/threonine-protein kinase Sgk3 (Homo sapiens, UniProt Q96BR1); assay: SGK3(SGK3LGY1) Takeda global kinase panel
[12] = biological target: Leukocyte tyrosine kinase receptor (Homo sapiens, UniProt P29376); assay: LTK(LTK1LGF1) Takeda global kinase panel
Leukocyte tyrosine kinase receptor, sequence (P29376 whole entry): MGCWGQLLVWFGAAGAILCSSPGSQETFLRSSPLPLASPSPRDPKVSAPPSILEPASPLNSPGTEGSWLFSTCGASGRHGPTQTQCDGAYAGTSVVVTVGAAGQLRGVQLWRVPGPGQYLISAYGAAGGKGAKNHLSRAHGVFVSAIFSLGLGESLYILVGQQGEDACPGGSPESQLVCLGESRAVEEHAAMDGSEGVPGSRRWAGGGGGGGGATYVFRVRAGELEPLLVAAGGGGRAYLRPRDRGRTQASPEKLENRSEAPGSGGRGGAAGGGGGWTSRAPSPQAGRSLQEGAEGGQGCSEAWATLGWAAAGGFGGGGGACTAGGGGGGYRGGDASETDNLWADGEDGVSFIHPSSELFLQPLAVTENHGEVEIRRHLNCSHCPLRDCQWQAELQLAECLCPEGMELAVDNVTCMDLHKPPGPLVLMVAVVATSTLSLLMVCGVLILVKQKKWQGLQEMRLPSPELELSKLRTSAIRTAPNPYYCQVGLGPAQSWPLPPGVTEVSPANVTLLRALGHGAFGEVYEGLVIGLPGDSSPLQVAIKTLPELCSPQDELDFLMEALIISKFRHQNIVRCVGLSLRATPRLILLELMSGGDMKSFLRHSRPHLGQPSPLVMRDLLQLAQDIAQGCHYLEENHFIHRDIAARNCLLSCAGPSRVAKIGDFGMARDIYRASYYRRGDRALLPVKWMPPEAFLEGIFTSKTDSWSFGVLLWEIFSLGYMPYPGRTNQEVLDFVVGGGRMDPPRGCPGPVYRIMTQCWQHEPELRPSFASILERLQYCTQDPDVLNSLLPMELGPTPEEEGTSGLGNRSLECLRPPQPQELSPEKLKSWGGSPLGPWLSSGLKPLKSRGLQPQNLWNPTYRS

[13] = biological target: Protein kinase C eta type (Homo sapiens, UniProt P24723); assay: PKCeta(PRKHLGRA) Takeda global kinase panel
[14] = biological target: Cyclin-dependent kinase 7 (Homo sapiens, UniProt P50613); assay: CDK7(CDK7CGS1) Takeda global kinase panel
[15] = biological target: Activin receptor type-1-like (Homo sapiens, UniProt P37023); assay: ALK1(ACL1LGF1) Takeda global kinase panel
[16] = biological target: Serine/threonine-protein kinase 3 (Homo sapiens, UniProt Q13188); assay: MST2(STK3LGF1) Takeda global kinase panel
[17] = biological target: Fibroblast growth factor receptor 3 (Homo sapiens, UniProt P22607); assay: FGFR3(FGF3LGF1) Takeda global kinase panel
[18] = biological target: Serine/threonine-protein kinase TAO2 (Homo sapiens, UniProt Q9UL54); assay: TAO2(TAO2LGF1) Takeda global kinase panel
[19] = biological target: Phosphorylase b kinase gamma catalytic chain, skeletal muscle/heart isoform (Homo sapiens, UniProt Q16816); assay: PhKgamma1(PHG1LHY1) Takeda global kinase panel
Phosphorylase b kinase gamma catalytic chain, skeletal muscle/heart isoform, sequence (Q16816 whole entry, canonical isoform): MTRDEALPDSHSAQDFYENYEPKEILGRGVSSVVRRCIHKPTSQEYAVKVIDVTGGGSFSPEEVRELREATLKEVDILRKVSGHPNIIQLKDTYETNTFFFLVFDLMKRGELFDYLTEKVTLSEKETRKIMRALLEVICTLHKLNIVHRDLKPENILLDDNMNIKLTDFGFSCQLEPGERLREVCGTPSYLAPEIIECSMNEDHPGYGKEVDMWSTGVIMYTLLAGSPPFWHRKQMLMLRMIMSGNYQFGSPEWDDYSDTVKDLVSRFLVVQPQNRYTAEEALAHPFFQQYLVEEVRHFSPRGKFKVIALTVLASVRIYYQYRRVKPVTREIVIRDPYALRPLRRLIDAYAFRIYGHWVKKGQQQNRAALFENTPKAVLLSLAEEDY

[20] = biological target: Cyclin-dependent kinase 14 (Homo sapiens, UniProt O94921); assay: PFTAIRE1(CD14CGS1) Takeda global kinase panel
[21] = biological target: Casein kinase I isoform alpha-like (Homo sapiens, UniProt Q8N752); assay: CK1alpha2(C1ALLGI5) Takeda global kinase panel
[22] = biological target: Serine/threonine-protein kinase OSR1 (Homo sapiens, UniProt O95747); assay: OSR1(OXS1LGY1) Takeda global kinase panel
[23] = biological target: Serine/threonine-protein kinase B-raf (Homo sapiens, UniProt P15056); assay: BRAF(BRAFLGY1) Takeda global kinase panel
[24] = biological target: Homeodomain-interacting protein kinase 4 (Homo sapiens, UniProt Q8NE63); assay: HIPK4(HIP4LHY1) Takeda global kinase panel
[25] = biological target: Mitogen-activated protein kinase kinase kinase 14 (Homo sapiens, UniProt Q99558); assay: NIK(M314LGP1) Takeda global kinase panel
[26] = biological target: Mitogen-activated protein kinase kinase kinase 12 (Homo sapiens, UniProt Q12852); assay: DLK(M312CGY1) Takeda global kinase panel
[27] = biological target: Serine/threonine-protein kinase MARK2 (Homo sapiens, UniProt Q7KZI7); assay: MARK2(MAR2LGY1) Takeda global kinase panel
Serine/threonine-protein kinase MARK2, sequence (Q7KZI7 whole entry): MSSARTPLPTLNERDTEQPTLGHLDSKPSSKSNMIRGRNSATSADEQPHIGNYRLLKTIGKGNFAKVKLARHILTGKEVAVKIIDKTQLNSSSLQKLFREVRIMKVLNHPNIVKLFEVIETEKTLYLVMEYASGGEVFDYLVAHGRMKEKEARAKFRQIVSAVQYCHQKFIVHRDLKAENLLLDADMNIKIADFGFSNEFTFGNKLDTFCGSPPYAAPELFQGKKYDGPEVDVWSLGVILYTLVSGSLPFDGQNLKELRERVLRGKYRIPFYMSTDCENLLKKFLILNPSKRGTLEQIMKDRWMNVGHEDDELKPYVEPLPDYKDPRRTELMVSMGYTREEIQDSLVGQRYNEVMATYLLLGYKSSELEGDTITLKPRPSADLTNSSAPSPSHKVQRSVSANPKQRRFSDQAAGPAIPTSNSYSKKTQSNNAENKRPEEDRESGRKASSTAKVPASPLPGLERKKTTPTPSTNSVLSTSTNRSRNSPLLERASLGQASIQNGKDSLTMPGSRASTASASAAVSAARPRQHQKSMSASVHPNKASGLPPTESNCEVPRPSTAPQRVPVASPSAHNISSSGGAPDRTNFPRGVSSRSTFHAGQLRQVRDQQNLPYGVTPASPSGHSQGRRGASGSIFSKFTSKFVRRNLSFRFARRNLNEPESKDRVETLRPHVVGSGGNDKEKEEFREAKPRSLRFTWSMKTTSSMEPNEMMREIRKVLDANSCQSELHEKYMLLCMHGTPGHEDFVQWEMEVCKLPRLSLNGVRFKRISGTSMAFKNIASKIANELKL

[28] = biological target: Myosin light chain kinase 2, skeletal/cardiac muscle (Homo sapiens, UniProt Q9H1R3); assay: skMLCK(MYL2LHY1) Takeda global kinase panel
[29] = biological target: D(1A) dopamine receptor (Homo sapiens) (UniProt P21728); conditions: Compound concentration 10.0 uM
[30] = biological target: Serine/threonine-protein kinase Nek11 (Homo sapiens, UniProt Q8NG66); assay: Nek11(NE11LGRI) Takeda global kinase panel
[31] = biological target: Dual specificity protein kinase CLK1 (Homo sapiens, UniProt P49759); assay: CLK1(CLK1LGF1) Takeda global kinase panel
[32] = biological target: Death-associated protein kinase 2 (Homo sapiens, UniProt Q9UIK4); assay: DAPK2(DAP2LGF1) Takeda global kinase panel
Death-associated protein kinase 2, sequence (Q9UIK4 whole entry): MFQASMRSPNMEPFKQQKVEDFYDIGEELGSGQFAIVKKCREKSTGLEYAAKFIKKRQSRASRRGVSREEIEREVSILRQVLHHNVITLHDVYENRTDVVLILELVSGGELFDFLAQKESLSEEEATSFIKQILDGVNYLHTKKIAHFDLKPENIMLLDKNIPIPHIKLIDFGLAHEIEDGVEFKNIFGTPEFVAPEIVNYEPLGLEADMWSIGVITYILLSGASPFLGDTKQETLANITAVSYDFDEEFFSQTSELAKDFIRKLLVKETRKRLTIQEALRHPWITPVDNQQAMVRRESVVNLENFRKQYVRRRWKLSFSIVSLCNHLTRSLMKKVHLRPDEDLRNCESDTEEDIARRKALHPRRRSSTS

[33] = biological target: Estrogen receptor (Homo sapiens) (UniProt P03372); conditions: Compound concentration 10.0 uM
[34] = biological target: Homeodomain-interacting protein kinase 1 (Homo sapiens, UniProt Q86Z02); assay: HIPK1(HIP1LGF1) Takeda global kinase panel
[35] = biological target: Dual specificity tyrosine-phosphorylation-regulated kinase 2 (Homo sapiens, UniProt Q92630); assay: DYRK2(DYR2LGY1) Takeda global kinase panel
[36] = biological target: MAP/microtubule affinity-regulating kinase 3 (Homo sapiens, UniProt P27448); assay: MARK3(MAR3LGO5) Takeda global kinase panel
MAP/microtubule affinity-regulating kinase 3, sequence (P27448 whole entry): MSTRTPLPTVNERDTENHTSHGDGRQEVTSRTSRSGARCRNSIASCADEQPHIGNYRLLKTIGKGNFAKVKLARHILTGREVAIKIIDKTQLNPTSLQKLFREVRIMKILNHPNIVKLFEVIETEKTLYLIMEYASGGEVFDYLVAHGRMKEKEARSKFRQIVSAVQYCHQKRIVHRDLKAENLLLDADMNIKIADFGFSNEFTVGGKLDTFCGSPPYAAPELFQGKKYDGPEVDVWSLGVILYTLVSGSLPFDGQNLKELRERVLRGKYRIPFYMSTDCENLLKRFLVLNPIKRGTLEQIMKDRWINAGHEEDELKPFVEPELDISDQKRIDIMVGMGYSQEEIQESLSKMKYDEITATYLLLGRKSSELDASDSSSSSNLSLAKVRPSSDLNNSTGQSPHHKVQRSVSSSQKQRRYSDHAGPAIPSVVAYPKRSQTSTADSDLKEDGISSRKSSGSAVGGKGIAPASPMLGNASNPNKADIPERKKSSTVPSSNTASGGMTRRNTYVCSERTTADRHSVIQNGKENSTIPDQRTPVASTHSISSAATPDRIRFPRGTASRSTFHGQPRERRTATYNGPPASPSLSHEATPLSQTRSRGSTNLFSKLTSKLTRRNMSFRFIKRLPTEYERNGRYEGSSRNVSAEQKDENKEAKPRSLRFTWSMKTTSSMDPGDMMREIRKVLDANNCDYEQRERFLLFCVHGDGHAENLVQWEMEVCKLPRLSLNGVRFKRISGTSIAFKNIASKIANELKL

[37] = biological target: Mitogen-activated protein kinase 8 (Homo sapiens, UniProt P45983); assay: JNK1(MAP8LGF1) Takeda global kinase panel
[38] = biological target: Rho-associated protein kinase 1 (Homo sapiens, UniProt Q13464); assay: ROCK1(ROC1LGY1) Takeda global kinase panel
[39] = biological target: Microtubule-associated serine/threonine-protein kinase 1 (Homo sapiens, UniProt Q9Y2H9); assay: MAST1(MAS1LGE5) Takeda global kinase panel
[40] = biological target: Adenosine receptor A1 (Homo sapiens) (UniProt P30542); conditions: Compound concentration 10.0 uM
[41] = biological target: Tyrosine-protein kinase Fgr (Homo sapiens, UniProt P09769); assay: Fgr(FGR1LGF1) Takeda global kinase panel
[42] = biological target: Epidermal growth factor receptor (Homo sapiens, UniProt P00533); assay: Inhibition of Epidermal Growth Factor (EGF) at 10 µM in the Eurofins-Panlabs radioligand binding assay (Eurofins_assay_225510); conditions: Compound concentration 10.0 uM
[43] = biological target: Macrophage colony-stimulating factor 1 receptor (Homo sapiens, UniProt P07333); assay: FmS [CSFR(CSF1LGC1)] Takeda global kinase panel
[44] = biological target: Cyclin-dependent kinase 13 (Homo sapiens, UniProt Q14004); assay: CHED(CD13PHS1) Takeda global kinase panel
Cyclin-dependent kinase 13, sequence (Q14004 whole entry): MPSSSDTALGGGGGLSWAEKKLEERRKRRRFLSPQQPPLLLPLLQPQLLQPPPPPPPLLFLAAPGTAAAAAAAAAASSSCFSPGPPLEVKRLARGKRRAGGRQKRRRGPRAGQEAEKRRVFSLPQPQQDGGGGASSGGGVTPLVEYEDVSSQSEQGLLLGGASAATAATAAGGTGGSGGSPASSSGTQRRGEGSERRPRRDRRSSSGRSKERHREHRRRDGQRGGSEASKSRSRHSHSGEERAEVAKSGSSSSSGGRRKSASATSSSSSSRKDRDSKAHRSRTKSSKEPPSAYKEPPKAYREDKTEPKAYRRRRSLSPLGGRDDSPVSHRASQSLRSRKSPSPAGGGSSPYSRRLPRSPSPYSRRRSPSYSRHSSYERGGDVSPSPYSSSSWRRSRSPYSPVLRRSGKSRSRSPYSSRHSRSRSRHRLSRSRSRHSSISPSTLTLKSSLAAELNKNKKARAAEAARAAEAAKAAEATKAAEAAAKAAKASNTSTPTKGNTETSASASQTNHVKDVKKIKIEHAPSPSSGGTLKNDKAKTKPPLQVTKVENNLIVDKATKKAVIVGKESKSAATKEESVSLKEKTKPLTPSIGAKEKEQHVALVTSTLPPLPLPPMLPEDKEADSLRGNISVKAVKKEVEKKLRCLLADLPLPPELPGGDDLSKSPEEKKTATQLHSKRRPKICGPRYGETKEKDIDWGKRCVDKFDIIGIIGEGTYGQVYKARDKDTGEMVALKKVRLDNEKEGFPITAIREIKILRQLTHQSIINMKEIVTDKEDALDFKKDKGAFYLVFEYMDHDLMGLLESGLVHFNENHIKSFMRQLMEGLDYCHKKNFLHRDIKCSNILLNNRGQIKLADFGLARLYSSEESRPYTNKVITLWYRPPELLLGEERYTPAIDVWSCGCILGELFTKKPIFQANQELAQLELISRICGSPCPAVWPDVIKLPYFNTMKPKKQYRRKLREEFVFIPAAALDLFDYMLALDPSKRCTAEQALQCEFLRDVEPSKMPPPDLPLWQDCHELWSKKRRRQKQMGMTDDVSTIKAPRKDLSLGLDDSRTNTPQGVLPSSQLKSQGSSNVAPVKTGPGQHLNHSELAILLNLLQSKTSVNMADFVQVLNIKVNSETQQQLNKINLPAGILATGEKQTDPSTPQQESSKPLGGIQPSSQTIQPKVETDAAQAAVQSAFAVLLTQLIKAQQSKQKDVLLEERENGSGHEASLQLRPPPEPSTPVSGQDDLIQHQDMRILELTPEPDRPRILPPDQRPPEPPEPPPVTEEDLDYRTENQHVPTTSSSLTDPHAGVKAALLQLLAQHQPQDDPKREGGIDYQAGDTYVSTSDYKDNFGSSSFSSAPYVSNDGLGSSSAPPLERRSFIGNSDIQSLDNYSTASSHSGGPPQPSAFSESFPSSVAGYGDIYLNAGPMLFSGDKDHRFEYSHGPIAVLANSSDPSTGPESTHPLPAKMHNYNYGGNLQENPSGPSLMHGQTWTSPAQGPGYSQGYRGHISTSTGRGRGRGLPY

[45] = biological target: Histamine H1 receptor (Homo sapiens) (UniProt P35367); conditions: Compound concentration 10.0 uM
[46] = biological target: Cytoplasmic tyrosine-protein kinase BMX (Homo sapiens, UniProt P51813); assay: Etk [BMX(BMX1CGF1)] Takeda global kinase panel

SMILES: CN1C(=O)[C@@H](N2CCc3cn(Cc4ccccc4)nc3C2=O)COc2ccccc21 [TP-030-1]
- IC50 [1]: 1000 nM
- inhibition [2]: 7%
- IC50 [3]: 1000 nM
- IC50 [4]: 1000 nM
- IC50 [5]: 1000 nM
- IC50 [6]: 1000 nM
- IC50 [7]: 1000 nM
- IC50 [8]: 1000 nM
- IC50 [9]: 1000 nM
- inhibition [10]: 2%
- IC50 [11]: 1000 nM
- IC50 [12]: 1000 nM
- IC50 [13]: 1000 nM
- IC50 [14]: 1000 nM
- IC50 [15]: 1000 nM
- IC50 [16]: 1000 nM
- IC50 [17]: 1000 nM
- IC50 [18]: 1000 nM
- IC50 [19]: 1000 nM
- IC50 [20]: 1000 nM
- IC50 [21]: 1000 nM
- IC50 [22]: 1000 nM
- IC50 [23]: 1000 nM
- IC50 [24]: 1000 nM
- IC50 [25]: 1000 nM
- IC50 [26]: 1000 nM
- IC50 [27]: 1000 nM
- IC50 [28]: 1000 nM
- inhibition [29]: -4%
- IC50 [30]: 1000 nM
- IC50 [31]: 1000 nM
- IC50 [32]: 1000 nM
- inhibition [33]: 36%
- IC50 [34]: 1000 nM
- IC50 [35]: 1000 nM
- IC50 [36]: 1000 nM
- IC50 [37]: 1000 nM
- IC50 [38]: 1000 nM
- IC50 [39]: 1000 nM
- inhibition [40]: 7%
- IC50 [41]: 1000 nM
- inhibition [42]: -3%
- IC50 [43]: 1000 nM
- IC50 [44]: 1000 nM
- inhibition [45]: 3%
- IC50 [46]: 1000 nM

SMILES: CN1C(=O)[C@@H](N2CCc3cn(CC4CCS(=O)(=O)CC4)nc3C2=O)COc2ccccc21 [TP-030n]
- IC50 [1]: 1000 nM
- inhibition [2]: 2%
- IC50 [3]: 1000 nM
- IC50 [4]: 1000 nM
- IC50 [5]: 1000 nM
- IC50 [6]: 1000 nM
- IC50 [7]: 1000 nM
- IC50 [8]: 1000 nM
- IC50 [9]: 1000 nM
- inhibition [10]: 9%
- IC50 [11]: 1000 nM
- IC50 [12]: 1000 nM
- IC50 [13]: 1000 nM
- IC50 [14]: 1000 nM
- IC50 [15]: 1000 nM
- IC50 [16]: 1000 nM
- IC50 [17]: 1000 nM
- IC50 [18]: 1000 nM
- IC50 [19]: 1000 nM
- IC50 [20]: 1000 nM
- IC50 [21]: 1000 nM
- IC50 [22]: 1000 nM
- IC50 [23]: 1000 nM
- IC50 [24]: 1000 nM
- IC50 [25]: 1000 nM
- IC50 [26]: 1000 nM
- IC50 [27]: 1000 nM
- IC50 [28]: 1000 nM
- inhibition [29]: 7%
- IC50 [30]: 1000 nM
- IC50 [31]: 1000 nM
- IC50 [32]: 1000 nM
- inhibition [33]: 5%
- IC50 [34]: 1000 nM
- IC50 [35]: 1000 nM
- IC50 [36]: 1000 nM
- IC50 [37]: 1000 nM
- IC50 [38]: 1000 nM
- IC50 [39]: 1000 nM
- inhibition [40]: -2%
- IC50 [41]: 1000 nM
- inhibition [42]: 4%
- IC50 [43]: 1000 nM
- IC50 [44]: 1000 nM
- inhibition [45]: 8%
- IC50 [46]: 1000 nM
